Experimental data from patent US11209437B2, “Fluorescent probe and preparation method and use thereof” (Fluorescence Diagnosis (shanghai) Biotech Company Ltd., priority 2016, dated 2021).

How the values were obtained:
fusion protein CX43-SNAP = experiment: Tracing assembly of CX43-SNAP intercellular channels in HeLa cells; assay type: cell-based; details: probe 21 2 μM 1 hour first, then probe 1 1 μM
Excerpt: To verify that the probe of the present invention can be used to monitor the assembly and degradation process of biological macromolecules in mammalian cells in real time, the process of tracing the assembly of intercellular protein CX43 to form intercellular channels in mammalian cells by the probe was detected by taking HeLa cells as an example. The C-terminal of CX43 gene was fused with SNAP gene, and HeLa cell line with stable expression of fusion protein CX43-SNAP was constructed and obtained by lentivirus infection technology. HeLa-CX43-SNAP cell lines were implanted in a 20 mm glass-bottom cell culture dish 10 hrs before the probe labeling. To conduct labeling, a phenol-free red DMEM medium was first used to dilute the probe 21 to 2 μM to replace the original cell culture medium. Cells were incubated in a carbon dioxide incubator at 37° C. for 1 hour. The cells were then washed twice using a fresh phenol-free red DMEM medium, with unbound probe 21 removed at 2-minute intervals. Then, DMEM phenol-free red culture medium containing 1 μM probe 1 was added to label cells. Leica SP8 confocal microscopy was used to monitor for a long time the fluorescence intensity and position changes of labeled cell samples at the corresponding fluorescence channels of probes 21 and 1, as shown in FIGS. 17A and 17B, respectively. […]

[1] = Viscosity responsiveness: fluorescence emission spectra of probes in glycerol and methanol; assay type: physicochemical; details: for Emission wavelength: excited at maximum excitation wavelength of each probe; for Fluorescence ratio in glycerol to methanol: probe 1×10^−5 M
Procedure, shortened: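 Each probe, from a 1×10^−2 M DMSO stock, was diluted to a final 1×10^−5 M in glycerol and in methanol. Fluorescence emission spectra were then recorded under identical conditions at each probe's maximum excitation wavelength.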

[2] = tested on: HeLa cells with stable expression of protein tags; experiment: Labeling of HeLa cells expressing protein tags vs HeLa-WT cells, confocal imaging; assay type: cell-based; details: probe 5 μM, 37° C., 2 hrs
Procedure: HeLa cells with stable expression of protein tags and HeLa-WT cells (HeLa primitive cells, with no protein tag expressed) were implanted in a 14 mm glass-bottom 96-well cell culture plate and stabilized for 10 hrs. Probes 1, 15, 21, 30, 56, 60, 63, 88 were added to the media, respectively and diluted to 5 μMs. The cells were incubated in a carbon dioxide incubator at 37° C. for 2 hrs, and then a Leica TPS-8 confocal microscopy was used to image the fluorescent changes of the labeled cells. […] However, for HeLa cells with protein tags expressed shown by group A in FIG. 12, strong fluorescent signals could be detected, which are nearly 300 times stronger.

HeLa cells = experiment: Labeling of organelle-localized protein tags in HeLa cells without washing; assay type: cell-based; details: 0.2 μM probe, 2 hrs, no washing
Excerpt: To verify that probes 1, 21, 48, 60, 66 and 77 can be used to label target proteins located by different organelles, HeLa cells were taken as an example to detect the effect of probes on labeling different subcellular proteins. HeLa cells were implanted 5000 cells per well in a 96-well glass-bottom cell culture plate. 14 hrs later, the cells were transfected with the plasmids encoding different organelle localized protein tags using Lipo2000; the original medium was removed 24 hrs after transfection, washed with a phenol-free red DMEM medium twice, and incubated with a phenol-free red medium containing 0.2 μM probes for 2 hrs, and then the cell labeling effects were detected by imaging with a leica TCS-8 confocal microscopy.

[3] = Fluorescence of free probe prior to binding to a protein tag; assay type: physicochemical
SNAP protein tags = target: T1, SNAP protein tags (Homo sapiens, UniProt P16455, A127T/A154D/C150Q/C62A/E30R/G131K/G132T/G153L/K125A/K32I/L33F/M134L/N157G/Q115S/Q116H/R128A/R135S/S151G/S152D/S159E); experiment: Fluorescence activation of probe after incubation with corresponding protein tag (SNAP); assay type: biochemical; details: probe 5 μM, protein tag 10 μM, 37° C., 1 hr
T1 sequence (P16455 1-182 E30R/K32I/L33F/C62A/Q115S/Q116H/K125A/A127T/R128A/G131K/G132T/M134L/R135S/C150Q/S151G/S152D/G153L/A154D/N157G/S159E): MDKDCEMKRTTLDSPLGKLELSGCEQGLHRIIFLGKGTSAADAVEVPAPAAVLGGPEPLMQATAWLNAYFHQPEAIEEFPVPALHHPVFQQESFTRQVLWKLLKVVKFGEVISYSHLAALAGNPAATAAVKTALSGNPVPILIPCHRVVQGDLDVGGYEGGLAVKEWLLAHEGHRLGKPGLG
Procedure, shortened: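 Probe (5 μM final) mixed with CLIP or SNAP protein tag (10 μM final) and incubated 1 hr at 37° C. Fluorescence intensity change measured by fluorescence spectrophotometer, with quantum yield of tag-bound probe determined.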

SNAP-IAA17-H2B protein = experiment: Fluorescence change on AID-induced degradation of SNAP-IAA17-H2B in HeLa cells; assay type: cell-based; details: 1 μM probe; 120 min after indoleacetic acid
Excerpt: To verify the correlation between the fluorescent activation of the probe of the present invention and the existence of proteins, SNAP protein in mammalian cells was taken as an example, and the fluorescence changes of SNAP protein binding probes after protein degradation were detected in HeLa cells by taking AID degradation system as an example. Firstly, HeLa cells were implanted 20,000/cm^2 in a 20 mm glass-bottom cell culture dish, and 14 hrs later, plasmids pcdna3.1-TIR1 and pcdna3.1-SNAP-IAA17-H2B were transfected by invitrogen's lipofectmain2000 transfection reagent. 24 hrs after the cell transfection, the original cell culture medium was replaced with a phenol-free red DMEM medium containing 1 μM of probe 21 to label the cells. The cell samples were incubated in a carbon dioxide incubator at 37° C. for 1 hour. After the labeling was completed, the fluorescence signal of labeled cells was detected by imaging with a Leica SP8 laser confocal microscopy, and indoleacetic acid (IAA) was added to induce SNAP-IAA17-H2B protein to degrade, and the cell fluorescence changes were detected during the protein degradation. […] When proteins exist, the fluorescence is activated, and when proteins are degraded, the fluorescence disappears, which can be used to track and monitor the degradation process of target proteins.

CLIP protein tags = experiment: Fluorescence activation of probe after incubation with corresponding protein tag (CLIP); assay type: biochemical; details: probe 5 μM, protein tag 10 μM, 37° C., 1 hr
Procedure: Probes were mixed with corresponding protein tags to obtain mixed samples, in which the final probe concentration was 5 μM, and the final protein tag concentration was 10 μM. The mixed samples were incubated 37° C. for 1 hr, fluorescence spectrophotometer was used to detect the change in fluorescence intensity, and the results are shown in Table 1.
From the quantum yield of probe bound to protein tag, after reacting with the protein tags, the probes of the Examples could be detected to have significant signal enhancement in corresponding excitation transmission channels, the fluorescence activation multiple reached several hundreds to a thousand or more, and the brightness was high, which illustrates that after the probes of the Examples are bound to the protein tags, fluorescence of the probes can be activated, and the probes have good fluorescent molecular switching properties. In contrast, though the fluorescence of the reference probes could also be activated, the quantum yield of activated fluorescence was very low, and the brightness was very poor. In particular, in view of comparison results between probe 98 and reference probe 99, probe 101 and reference probe 102, probe 103 and reference probe 104, probe 105 and reference probe 106, probe 107 and reference probe 108, probe 109 and reference probe 110, probe 111 and reference probe 112, probe 114 and reference probe 115, probe 117 and reference probe 118, probe 120 and reference probe 121 in Table 1, for the same fluorescent dye, when the ligand is connected to the electron donor part of the fluorescent dye, the fluorescence activation brightness of the probe is much higher than the reference probe in which ligand is connected to the electron acceptor part of the fluorescent dye.

SNAP protein tag [4] = experiment: In vivo labeling of SNAP protein tag expressed in mouse liver; details: mice, tail vein injection, 6 hrs after probe
Procedure: (§1) First, a SNAP protein tag expressing plasmid, pcdna3.1-SNAP (sample group), and a control plasmid without SNAP protein tag expressing, pcdna3.1-CAT (control group), were introduced into mice. This method dissolves plasmids in a large volume of solution and rapidly injects them into mice through tail vein injection. The mouse liver and kidneys absorb DNA and then express the target protein. 20 hrs after plasmid injection, 0.4 μM probe 88 dissolved in 200 μl PBS was injected into mice through tail vein injection to label the SNAP protein tag. 6 hrs later, the mice were dissected, and the fluorescence differences in the liver parts of different mouse samples were detected by KODAK multi-spectral in vivo imaging system. The liver fluorescence of the control plasmid pcdna3.1-CAT injected with probe 88 was very low, close to the background fluorescence level of the blank liver without the probe, while the liver of SNAP plasmid pcdna3.1-SNAP injected with probe 88 had strong fluorescence, and the signal intensity was more than 20 times higher than that of the control group.

SNAP protein tag [5] = target: T2, SNAP protein tag (Homo sapiens, UniProt P16455, A127T/A154D/C150Q/C62A/E30R/G131K/G132T/G153L/K125A/K32I/L33F/M134L/N157G/Q115S/Q116H/R128A/R135S/S151G/S152D/S159E); experiment: as above; details: mice, tail vein injection, 6 hrs after probe
T2 construct: expressed in transfected cells; host or cells: mouse liver after tail-vein plasmid injection
T2 sequence (P16455 1-182 E30R/K32I/L33F/C62A/Q115S/Q116H/K125A/A127T/R128A/G131K/G132T/M134L/R135S/C150Q/S151G/S152D/G153L/A154D/N157G/S159E): T1 sequence (P16455 1-182 E30R/K32I/L33F/C62A/Q115S/Q116H/K125A/A127T/R128A/G131K/G132T/M134L/R135S/C150Q/S151G/S152D/G153L/A154D/N157G/S159E)
Procedure: as §1

Row | Emission wavelength [1] | Fluorescence ratio in glycerol to methanol [1] | Quantum yield of free probe [3] | SMILES | Fluorescence signal at intercellular channels (fusion protein CX43-SNAP) | Fluorescence signal in HeLa-WT cells (no protein tag expressed) [2] | Fluorescent signal in HeLa cells with protein tags expressed, relative to HeLa-WT [2] | Labeling of subcellular organelle structures (HeLa cells) | Fluorescence activation multiple (SNAP protein tags) | Quantum yield of probe bound to protein tag (SNAP protein tags) | Fluorescence signal after indoleacetic acid-induced protein degradation (SNAP-IAA17-H2B protein) | Fluorescence activation multiple (CLIP protein tags) | Quantum yield of probe bound to protein tag (CLIP protein tags) | Liver fluorescence of control plasmid pcdna3.1-CAT group (SNAP protein tag [4]) | Liver fluorescence signal intensity of pcdna3.1-SNAP group relative to control group (SNAP protein tag [5])
1 | 625 nm | 180 | <0.001 | CN(CCOC(=O)NCc1ccc(COc2nccc(N)n2)cc1)c1ccc2nc(/C=C(\C#N)c3nc4ccccc4s3)oc2c1 [probe 48] |  |  |  | clearly display a variety of subcellular organelle structures without washing |  |  |  | 428 | 0.16 |  | 
2 | 620 nm | 1199 | 0.0011 | CN(CCOC(=O)NCc1ccc(COc2nc(N)nc3[nH]cnc23)cc1)c1cc2sc3cc(/C=C(\C#N)C(=O)OC(C)(C)C)sc3c2s1 [probe 60] |  | no corresponding fluorescence signal was detected | ~300 times | clearly display a variety of subcellular organelle structures without washing | 751 | 0.81 |  |  |  |  | 

The remaining lines, values behind:

Row | SMILES | Emission wavelength [1] | Fluorescence ratio in glycerol to methanol [1] | Quantum yield of free probe [3] | Fluorescence signal at intercellular channels (fusion protein CX43-SNAP) | Fluorescence signal in HeLa-WT cells (no protein tag expressed) [2] | Fluorescent signal in HeLa cells with protein tags expressed, relative to HeLa-WT [2] | Labeling of subcellular organelle structures (HeLa cells) | Fluorescence activation multiple (SNAP protein tags) | Quantum yield of probe bound to protein tag (SNAP protein tags) | Fluorescence signal after indoleacetic acid-induced protein degradation (SNAP-IAA17-H2B protein) | Fluorescence activation multiple (CLIP protein tags) | Quantum yield of probe bound to protein tag (CLIP protein tags) | Liver fluorescence of control plasmid pcdna3.1-CAT group (SNAP protein tag [4]) | Liver fluorescence signal intensity of pcdna3.1-SNAP group relative to control group (SNAP protein tag [5])
3 | CN(CCOC(=O)NCc1ccc(COc2nc(N)nc3[nH]cnc23)cc1)c1ccc(/C=C(\C#N)C(=O)OC(C)(C)C)cc1 [probe 1] | 480 nm | 560 | <0.001 | appeared and gradually increased at the edge of intercellular channels | no corresponding fluorescence signal was detected | ~300 times | clearly display a variety of subcellular organelle structures without washing | 360 | 0.35 |  |  |  |  | 
4 | CN(CCOC(=O)NCc1ccc(COc2nc(N)nc3[nH]cnc23)cc1)c1cc2sc(/C=C(\C#N)C(=O)OC(C)(C)C)cc2s1 [probe 21] | 555 nm | 1481 | <0.001 | long-columnar specific fluorescence signal between two cells | no corresponding fluorescence signal was detected | ~300 times | clearly display a variety of subcellular organelle structures without washing | 560 | 0.48 | basically invisible |  |  |  | 
5 | CN(CCOC(=O)NCc1ccc(COc2nc(N)nc3[nH]cnc23)cc1)c1ccc(-c2ccc(/C=C(\C#N)C(=O)OC(C)(C)C)s2)cc1 [probe 66] | 620 nm | 386 | <0.001 |  |  |  | clearly display a variety of subcellular organelle structures without washing | 512 | 0.37 |  |  |  |  | 
6 | CN(CCOC(=O)NCc1ccc(COc2nc(N)nc3[nH]cnc23)cc1)c1ccc(-c2ccc(/C=C(\C#N)C(=O)OC(C)(C)C)s2)s1 [probe 77] | 655 nm | 279 | 0.0014 |  |  |  | clearly display a variety of subcellular organelle structures without washing | 268 | 0.38 |  |  |  |  | 
7 | CC1=CC(C)(C)N(CCOC(=O)NCc2ccc(COc3nc(N)nc4[nH]cnc34)cc2)c2ccc(/C=C(\C#N)c3nc4ccccc4o3)cc21 [probe 88] | 595 nm | 298 | <0.001 |  | no corresponding fluorescence signal was detected | ~300 times |  | 621 | 0.29 |  |  |  | very low | more than 20 times
